Reference: PubChem BioAssay (NCI)
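Tested at 5 concentrations; 48 h exposure; 96-well plates; endpoints linearly interpolated, else capped at highest concentration. TGI denotes the concentration required for complete inhibition of growth.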

Key:
Experiment in all cases: NCI tumour cell line growth inhibition, 48 h
MALME-3M melanoma = system: MALME-3M melanoma
IGROV1 ovarian = system: IGROV1 ovarian
ACHN renal = system: ACHN renal
EKVX NSCLC = system: EKVX NSCLC
NCI-H226 lung = system: NCI-H226 lung
MOLT-4 leukemia = system: MOLT-4 leukemia
HS 578T breast = system: HS 578T breast
UACC-62 melanoma = system: UACC-62 melanoma
NCI-H522 lung = system: NCI-H522 lung
M14 melanoma = system: M14 melanoma
MCF7 breast = system: MCF7 breast
U251 CNS = system: U251 CNS
OVCAR-4 ovarian = system: OVCAR-4 ovarian
HCT-15 colon = system: HCT-15 colon
KM12 colon = system: KM12 colon
NCI-H23 lung = system: NCI-H23 lung
OVCAR-8 ovarian = system: OVCAR-8 ovarian
MDA-MB-231 breast = system: MDA-MB-231 breast
TK-10 renal = system: TK-10 renal
SR leukemia = system: SR leukemia
SF-539 CNS = system: SF-539 CNS
UO-31 renal = system: UO-31 renal
HOP-92 NSCLC = system: HOP-92 NSCLC
NCI/ADR-RES ovarian = system: NCI/ADR-RES ovarian
SK-MEL-28 melanoma = system: SK-MEL-28 melanoma
HL-60(TB) leukemia = system: HL-60(TB) leukemia
HOP-62 NSCLC = system: HOP-62 NSCLC
HCT-116 colon = system: HCT-116 colon
PC-3 prostate = system: PC-3 prostate
CCRF-CEM leukemia = system: CCRF-CEM leukemia
SNB-19 CNS = system: SNB-19 CNS
OVCAR-3 ovarian = system: OVCAR-3 ovarian
K-562 leukemia = system: K-562 leukemia
SK-MEL-5 melanoma = system: SK-MEL-5 melanoma
786-0 renal = system: 786-0 renal
COLO 205 colon = system: COLO 205 colon
BT-549 breast = system: BT-549 breast
RXF 393 renal = system: RXF 393 renal
HCC-2998 colon = system: HCC-2998 colon
RPMI-8226 leukemia = system: RPMI-8226 leukemia
A549 NSCLC = system: A549 NSCLC
SF-268 CNS = system: SF-268 CNS
SK-MEL-2 melanoma = system: SK-MEL-2 melanoma
SW-620 colon = system: SW-620 colon
T-47D breast = system: T-47D breast
SF-295 CNS = system: SF-295 CNS
HT29 colon = system: HT29 colon
OVCAR-5 ovarian = system: OVCAR-5 ovarian
LOX IMVI melanoma = system: LOX IMVI melanoma
NCI-H460 lung = system: NCI-H460 lung
CAKI-1 renal = system: CAKI-1 renal

Question: `CC(=O)O[C@H]1C(=O)[C@@]2(C)[C@H]([C@H](OC(=O)c3ccccc3)[C@]3(O)C[C@H](OC(=O)[C@H](O)[C@@H](NC(=O)c4ccccc4)C4CCCCC4)C(C)=C1C3(C)C)[C@]1(OC(C)=O)CO[C@@H]1C[C@@H]2O` was tested. Which TGI (MALME-3M melanoma) did it give?
Answer: 95 µM

Question: And the TGI (IGROV1 ovarian)?
Answer: > 61.3 µM

Question: What about the TGI (ACHN renal) of the same compound?
Answer: > 72.8 µM

Question: What about the TGI (EKVX NSCLC) of the same compound?
Answer: > 100 µM

Question: What about the TGI (NCI-H226 lung) of the same compound?
Answer: > 100 µM

Question: What about the TGI (MOLT-4 leukemia) of the same compound?
Answer: > 51.6 µM

Question: And the TGI (HS 578T breast)?
Answer: < 0.01 µM

Question: What about the TGI (UACC-62 melanoma) of the same compound?
Answer: 52.2 µM

Question: What about the TGI (NCI-H522 lung) of the same compound?
Answer: 0.011 µM

Question: And the TGI (M14 melanoma)?
Answer: 24 µM

Question: And the TGI (MCF7 breast)?
Answer: 25.9 µM

Question: What about the TGI (U251 CNS) of the same compound?
Answer: > 43 µM

Question: What about the TGI (OVCAR-4 ovarian) of the same compound?
Answer: 50.5 µM

Question: What about the TGI (HCT-15 colon) of the same compound?
Answer: > 51.1 µM

Question: And the TGI (KM12 colon)?
Answer: 37.1 µM

Question: What about the TGI (NCI-H23 lung) of the same compound?
Answer: > 100 µM

Question: And the TGI (OVCAR-8 ovarian)?
Answer: 98.8 µM

Question: And the TGI (MDA-MB-231 breast)?
Answer: 28.6 µM

Question: And the TGI (TK-10 renal)?
Answer: 37.4 µM

Question: And the TGI (SR leukemia)?
Answer: 25.1 µM

Question: What about the TGI (SF-539 CNS) of the same compound?
Answer: 0.0214 µM

Question: And the TGI (UO-31 renal)?
Answer: 36.2 µM

Question: What about the TGI (HOP-92 NSCLC) of the same compound?
Answer: 64.1 µM

Question: What about the TGI (NCI/ADR-RES ovarian) of the same compound?
Answer: 11.4 µM

Question: And the TGI (SK-MEL-28 melanoma)?
Answer: > 100 µM

Question: What about the TGI (HL-60(TB) leukemia) of the same compound?
Answer: < 0.01 µM

Question: What about the TGI (HOP-62 NSCLC) of the same compound?
Answer: 1.45 µM

Question: What about the TGI (HCT-116 colon) of the same compound?
Answer: > 44.9 µM

Question: And the TGI (PC-3 prostate)?
Answer: 2.91 µM

Question: What about the TGI (CCRF-CEM leukemia) of the same compound?
Answer: > 62.7 µM

Question: What about the TGI (SNB-19 CNS) of the same compound?
Answer: > 100 µM

Question: And the TGI (OVCAR-3 ovarian)?
Answer: < 0.01 µM

Question: And the TGI (K-562 leukemia)?
Answer: > 51.9 µM

Question: And the TGI (SK-MEL-5 melanoma)?
Answer: 14.9 µM

Question: And the TGI (786-0 renal)?
Answer: > 100 µM

Question: What about the TGI (COLO 205 colon) of the same compound?
Answer: < 0.01 µM

Question: And the TGI (BT-549 breast)?
Answer: > 100 µM

Question: What about the TGI (RXF 393 renal) of the same compound?
Answer: 0.013 µM

Question: What about the TGI (HCC-2998 colon) of the same compound?
Answer: 16.4 µM

Question: What about the TGI (RPMI-8226 leukemia) of the same compound?
Answer: 19.2 µM

Question: And the TGI (A549 NSCLC)?
Answer: > 100 µM

Question: What about the TGI (SF-268 CNS) of the same compound?
Answer: > 100 µM

Question: What about the TGI (SK-MEL-2 melanoma) of the same compound?
Answer: > 100 µM

Question: What about the TGI (SW-620 colon) of the same compound?
Answer: > 100 µM

Question: What about the TGI (T-47D breast) of the same compound?
Answer: 93.7 µM

Question: What about the TGI (SF-295 CNS) of the same compound?
Answer: 0.0606 µM

Question: And the TGI (HT29 colon)?
Answer: 17.5 µM

Question: And the TGI (OVCAR-5 ovarian)?
Answer: 0.673 µM

Question: And the TGI (LOX IMVI melanoma)?
Answer: > 56.4 µM

Question: What about the TGI (NCI-H460 lung) of the same compound?
Answer: 15.3 µM

Question: And the TGI (CAKI-1 renal)?
Answer: > 100 µM
